Reference: publication PMC7114339 (Antiviral Research, 2020)
“Also recorded” adds a separate entry of the source.

Experiments:
LASV = assay: cells; format: cell-based
ZIKV = assay: Antiviral activity in ZIKV-infected A549 cells; format: cell-based; conditions: ZIKV RNA, MOI 0.1, 24 hpi
[1] = test system: persistently HEV-infected A549 cells; assay: Cell viability of persistently HEV-infected A549 cells; conditions: 2 nM, 72 h
A549 cells = conditions: human
VP35-HP+(AG)5 = format: cell-based, EBOV
5′-UTR of EBOV VP35 = format: cell-based
in vitro = conditions: human
5′-UTR of MERS-CoV = format: cell-based
(AG)15 construct = assay: cells; format: cell-based; conditions: read-out: inhibited translation
HEV = format: cell-based
CCHFV = assay: cells; format: cell-based
HCoV-229E [2] = assay: microbe, parasite or virus in culture; format: cell-based; conditions: Human coronavirus 229E, MRC5
5′-UTR of EBOV VP30 mRNA = format: cell-based
[3] = test system: HEVgt3c-G4C and HEVgt3c-G4CC6A; format: cell-based, HEV
(AC)15 sequence = format: cell-based
HCoV-229E [4] = format: cell-based
[5] = test system: 5′-terminal hairpin of VP35 (VP35-HP only); format: cell-based, EBOV
5′-UTR of HEV (HEVgt3c) = format: cell-based; conditions: 10 nM
5′-UTR of HCoV-229E = format: cell-based
HEVgt3c-Purine 5′-UTR = format: cell-based, HEV
[6] = Cell toxicity in murine hepatocytes; conditions: mouse, murine hepatocytes (mock infected)
tumor growth = conditions: xenograft mouse model ref Wolfe et al., 2014; cited from earlier work
[7] = 2014, cited from earlier work

In the case of `COC(=O)[C@H]1[C@@H](O)[C@@]2(O)c3c(OC)cc(O[C@@H]4O[C@@H]([C@H](O)CO)CO[C@H]4OC)cc3O[C@@]2(c2ccc(OC)cc2)[C@@H]1c1ccccc1` [Silvestrol], the “virus titer drop, LASV” value (LASV) is reported as ~ 4 log, the EC50 (LASV; Mus musculus, Hepatocyte) is reported as 50.7 nM and the EC50 (ZIKV) is reported as 1.08 nM. The cytotoxicity [1] was “some cytotoxicity”, the CC50 (A549 cells) was 9.42 nM and the “effect on reporter activity” value (VP35-HP+(AG)5) was “slightly increased translation inhibition”. For the same molecule, the “sensitivity to translation inhibition” value (5′-UTR of EBOV VP35) was “sensitive”, the CC50 (in vitro) was over 10000 nM and the “sensitivity to translation inhibition” value (5′-UTR of MERS-CoV) was “similarly sensitive”. The inhibition at 0.01 µM ((AG)15 construct) was about 55%, the “antiviral effect against HEV (extracellular viral RNA levels)” value (HEV) was “confirmed the antiviral activity; also recorded: reduce the levels of extracellular HEV RNA” and the “virus titer drop, CCHFV” value (CCHFV) was 3 log. The EC50 (CCHFV; Mus musculus, Hepatocyte) was 28.5 nM, the EC50 (HCoV-229E [2]) was 3 nM and the “sensitivity to translation inhibition” value (5′-UTR of EBOV VP30 mRNA) was “similarly sensitive”. For the same molecule, the inhibitory effect [3] was “gradual loss of the inhibitory effect”, the “induction of luciferase activity” value ((AC)15 sequence) was 1.5 fold and the “virus titer in the supernatant reduced by” value (HCoV-229E [4]) was “similar”. For the same molecule, the infectious virus production (HCoV-229E [4]; 100 nM) was “undetectable levels”, the “effect on reporter activity” value [5] was “sufficient to mediate translation inhibition” and the luciferase activity (5′-UTR of HEV (HEVgt3c)) was “reduced luciferase activity”. For the same molecule, the “sensitivity to translation inhibition” value (5′-UTR of HCoV-229E) was “similarly sensitive”, the sensitivity to treatment (HEVgt3c-Purine 5′-UTR) was “sensitive” and the CC50 [6] was over 5000 nM. For the same molecule, the tumor growth (tumor growth) was “reduced tumor growth efficiently”.

For CR-31-B, the cytotoxicity [1] is given as “not cytotoxic”, the “body weight or the number of blood cells” value ([7]; mice ref Wolfe et al.) is given as “did not change” and the “toxicity in the gastrointestinal tract” value ([7]; mice ref Wolfe et al.) is given as “no toxicity could be observed”. For the same molecule, the “serum levels of aminotransferases (ALT and AST), albumin, total bilirubin, creatinine” value ([7]; two weeks after cessation of treatment ref Wolfe et al.) was “not significantly changed”, the cytotoxic effects (MRC-5 cells) was “no major cytotoxic effects” and the tumor growth (tumor growth) was “reduced tumor growth efficiently”.
